From patent US20260242365A1, “USES OF CERTAIN 1,4-OXAZEPANE-2-CARBOXAMIDES AS DPP1 INHIBITORS” (Insmed Incorporated, priority 2023, published 2026)

Legend:
proteinase 3 (PR3) = assay: PR3 activity in lysates of mouse bone marrow progenitor cells differentiated into neutrophils under DPP1 inhibitor; assay type: cell-based
Description: Male or female C57BL/6 mice at the age of 8-14 weeks were used.
The two femurs and two tibias were removed out of a single mouse and gauze was used to remove the muscles and residue tissues. A sterile environment for surgical instruments and surgical sites is maintained. The bones were put into one 15-mL tube with cold sterile RPMI medium and placed on ice until further processing is performed.
A fresh 50-mL tube is placed on ice and a fresh 40/70 μm cell strainer (CLS431750, Sigma) is inserted into the top of the Falcon tube. Both ends of two femurs and two tibias are cut with bone cutters and flush bone marrow of all bones from one single mouse are placed into the cell strainer. 5-mL of ice-cold RPMI (RPMI medium containing 10 mM HEPES, pH 7.4) was used for each femur or tibia using a blunt needle (25 G needle), totaling about 20 mL per tube.
The cell suspension is centrifuged at 600×g for 5 min at 4° C. and the supernatant is carefully discarded.
The cell pellet is resuspended in 400 μL of ice-cold MACS buffer (PH7.2 PBS plus 0.5% BSA and 2 mM EDTA) for one adult mouse (optimized for 4 bones/mouse).
100 μL Direct Lineage Cell Depletion Cocktail (which is enough for 100 million cells depletion) is added. The components are mixed well and incubated for 10 min. at 2° C.-8° C.
Magnetic separation LS Column (MACS, Miltenyi, 130 042 401) is prepared by placing it in the magnetic field of MACS Separator and rinsing with 3 mL of ice-cold MACS buffer.
Cell suspension is applied onto the column. Flow-through containing unlabeled cells, representing the enriched lineage negative cells, is collected.
Column is washed with 3×3 mL of ice-cold MACS buffer. Unlabeled cells that pass through are collected, representing the enriched lineage negative cells, and combined with the flow-through from prior step.
The cell suspension is centrifuged at 600×g for 5 min at 4° C., and the supernatant is carefully discarded. The pellet is washed once with 10 mL ice cold IMDM medium (IMDM GlutaMax (Gibco, 31980030) plus 10% FCS and 1% PS).
The cell pellet is resuspended with 2 mL ice-cold complete IMDM medium and the cells are counted. The cells are then ready for neutrophil differentiation.
The resulting undifferentiated bone marrow cells are in complete IMDM medium (IMDM with 10% FBS and 1% antibiotics); and the concentration of cells is adjusted to 1×10^5 cells/mL, supplemented with 50 ng/ml of SCF (BioLegend, 579704) and 50 ng/ml of IL 3 (BioLegend, 575504). The cells are subgrouped and the respective DPP1 inhibitors are added accordingly. Cells are then cultivated in a flask at 37° C. for 3 days.
Cells are checked each day for expansion and maintaining a final concentration between 2-10×10^5 cells/ml. On day 3, cells are counted. 3-4 million cells for each group are harvested and lystates prepared for NSPs activity detection. The left cells are resuspended at 2× 10^5 cells/mL in fresh medium supplemented with 50 ng/ml of SCF, 50 ng/ml of IL 3 and 50 ng/ml of G-CSF (BioLegend, 574604). The DPP1 inhibitors are refreshed in the medium. Cells are then cultivated in a flask at 37° C. for another 2 days.
On day 5, cells are counted. 3-4 million cells/condition are harvested and the cells are lysed to prepare samples for NSPs activity detection. The remaining cells are collected by centrifugation at 600×g for 5 min. The left cells are washed once in 1×PBS. After the wash, the pelleted cells are resuspended in complete IMDM medium at 4-6×10^5 cells/mL supplemented with 50 ng/ml of G-CSF only. The DPP1 inhibitors in the medium are refreshed. Cells incubate for additional 2 days, for a total of 7 days from day of harvest. On day 7, cells are counted. 3-4 million cells/condition are harvested and the cell lysed to prepare samples for NSPs activity detection.
3-4 million cells are collected into Eppendorf tubes. Samples are spun down at 600×g, 4° C. for 5 min. The supernatant is removed and resuspended in 1 mL PBS. […]

mouse DPP1 = biological target: T1, mouse DPP1 (Mus musculus, UniProt P97821); assay: Mouse DPP1 Enzyme IC50 Assay; assay type: biochemical; settings: active mouse DPP1 enzyme, H-Gly-Arg-AMC substrate
T1 construct: Test articles were applied to active mouse DPP1 enzyme; purchased R&D Systems
Description: Test articles were applied to active mouse DPP1 enzyme (R&D Systems; Minneapolis, MN) in Assay Buffer (50 mM MES pH 5.5, 50 mM NaCl, 5 mM DTT) in a total reaction volume of 125 μL. 25 μL of compound in Assay Buffer plus 5% DMSO was first added to 50 μL of active mouse DPP1 enzyme at a concentration of […] and allowed to pre-incubate for 10 minutes at 37° C. after which 50 μL of 1000 μM H-Gly-Arg-AMC substrate (Bachem; St. Torrance, CA) was added, giving final substrate concentration of 400 μM and a final DMSO concentration of 1%. Substrate cleavage was measured for 90 minutes at 37° C., with fluorescence at Excitation/Emission 350/450 nm measured every 5 minutes. DPP1 concentration was interpolated based on its activity relative to a standard curve of recombinant active mouse DPP1 enzyme. IC50 values for each compound were calculated via the XLFit (IDBS Version 5.3.1.3) Add-On to Microsoft Excel using the four parameter fit equation y= (A+ ((B−A)/(1+ ((C/x)^D)))), which appears as equation number 205 (4 Parameter Logistic Model or Sigmoidal Dose-Response Model) in XLFit. Default constraints were used for each Parameter. IC50 was defined as the compound concentration at which 50% of enzyme activity was inhibited when compared to the no-compound control.

T1 sequence (P97821 25-134 limits assumed): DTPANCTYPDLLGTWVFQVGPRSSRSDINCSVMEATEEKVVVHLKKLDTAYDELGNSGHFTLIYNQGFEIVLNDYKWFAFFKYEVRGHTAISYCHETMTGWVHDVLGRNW
T1 sequence (P97821 231-393 limits assumed): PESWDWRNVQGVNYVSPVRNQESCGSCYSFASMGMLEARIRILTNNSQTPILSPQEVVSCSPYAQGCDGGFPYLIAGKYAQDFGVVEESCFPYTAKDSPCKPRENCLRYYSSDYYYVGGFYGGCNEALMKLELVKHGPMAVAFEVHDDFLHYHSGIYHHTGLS
T1 sequence (P97821 394-462 limits assumed): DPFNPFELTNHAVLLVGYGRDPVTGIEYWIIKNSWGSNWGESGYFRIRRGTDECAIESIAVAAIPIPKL

Compound	PR3 Activity (% reduction from control) (proteinase 3 (PR3); 0.02 μM, Day 3) [%]	PR3 Activity (% reduction from control) (proteinase 3 (PR3); 0.02 μM, Day 5) [%]	PR3 Activity (% reduction from control) (proteinase 3 (PR3); 0.02 μM, Day 7) [%]	PR3 Activity (% reduction from control) (proteinase 3 (PR3); 0.1 μM, Day 3) [%]	PR3 Activity (% reduction from control) (proteinase 3 (PR3); 0.1 μM, Day 5) [%]	PR3 Activity (% reduction from control) (proteinase 3 (PR3); 0.1 μM, Day 7) [%]	max inhibition of PR3 activity observed (proteinase 3 (PR3); regardless of day)	IC50 (mouse DPP1) [nM]	reduction in PR3 activity (proteinase 3 (PR3))	max inhibition of PR3 activity observed (proteinase 3 (PR3); at 1 μM on D5 and D7)	PR3 inhibition at low dose, fluctuations depending on the day (range) (proteinase 3 (PR3); low dose, range over days)	concentration by which PR3 inhibition plateau is reached (proteinase 3 (PR3)) [µM]
COC1CNC[C@@H](C(=O)N[C@H](C#N)Cc2ccc(-c3ccc4oc(=O)n(C)c4c3)cc2)OC1 (mixture of isomers) [INSM-202, (6-rac)-(2S)—N-[(1S)-1-cyano-2-[4-(3-methyl-2-oxo-2,3-dihydro-1,3-benzoxazol-5-yl)phenyl]ethyl]-6-methoxy-1,4-oxazepane-2-carboxamide]	94	95	93	94	96	98	~ 95%	0.7 ± 0.2	–	–	–	–
Cn1c(=O)oc2ccc(-c3ccc(C[C@@H](C#N)NC(=O)[C@@H]4CNC[C@H](O)CO4)cc3)cc21 (single isomer, unassigned) [INSM-201, (2S,6S*)—N-[(1S)-1-cyano-2-[4-(3-methyl-2-oxo-2,3-dihydro-1,3-benzoxazol-5-yl)phenyl]ethyl]-6-hydroxy-1,4-oxazepane-2-carboxamide]	45	36	72	79	96	96	–	2.3 ± 0.4	concentration-dependent reduction in PR3 activity	~ 95%	36%-72%	–
COC1CNC[C@@H](C(=O)N[C@H](C#N)Cc2ccc(-c3ccc4oc(=O)n(C)c4c3)cc2)OC1 (single isomer, unassigned) [INSM-203, (2S,6R*)—N-[(1S)-1-cyano-2-[4-(3-methyl-2-oxo-2,3-dihydro-1,3-benzoxazol-5-yl)phenyl]ethyl]-6-methoxy-1,4-oxazepane-2-carboxamide]	93	93	85	94	94	84	~ 90%	0.3 ± 0.1	–	–	–	≤ 0.02
